Results taken from BindingDB's records for doi:10.1016/j.bioorg.2016.10.001 (Jamia Millia Islamia (A Central University), 2016).

molecular target: DNA topoisomerase 2-alpha (Homo sapiens, UniProt P11388); assay: Topoisomerase IIα Relaxation Assay; conditions: pH 7.9
Experimental: Relaxation of negatively supercoiled plasmid DNA by human topoisomerase IIα was assayed in 20 µL of reaction buffer (10 mM Tris-HCl, pH 7.9, 150 mM NaCl, 0.1% BSA, 0.1 mM spermidine, 5% glycerol and ATP) containing 250 ng of supercoiledpHOT1 plasmid DNA and 1 unit of enzyme. After incubation at 37 °C for 30 min, the reactions were terminated and analysed by agarose gel electrophoresis. The ethidium bromide-stained gel was photographed over UV light for densitometry analysis.

DNA topoisomerase 2-alpha, sequence (P11388 whole entry): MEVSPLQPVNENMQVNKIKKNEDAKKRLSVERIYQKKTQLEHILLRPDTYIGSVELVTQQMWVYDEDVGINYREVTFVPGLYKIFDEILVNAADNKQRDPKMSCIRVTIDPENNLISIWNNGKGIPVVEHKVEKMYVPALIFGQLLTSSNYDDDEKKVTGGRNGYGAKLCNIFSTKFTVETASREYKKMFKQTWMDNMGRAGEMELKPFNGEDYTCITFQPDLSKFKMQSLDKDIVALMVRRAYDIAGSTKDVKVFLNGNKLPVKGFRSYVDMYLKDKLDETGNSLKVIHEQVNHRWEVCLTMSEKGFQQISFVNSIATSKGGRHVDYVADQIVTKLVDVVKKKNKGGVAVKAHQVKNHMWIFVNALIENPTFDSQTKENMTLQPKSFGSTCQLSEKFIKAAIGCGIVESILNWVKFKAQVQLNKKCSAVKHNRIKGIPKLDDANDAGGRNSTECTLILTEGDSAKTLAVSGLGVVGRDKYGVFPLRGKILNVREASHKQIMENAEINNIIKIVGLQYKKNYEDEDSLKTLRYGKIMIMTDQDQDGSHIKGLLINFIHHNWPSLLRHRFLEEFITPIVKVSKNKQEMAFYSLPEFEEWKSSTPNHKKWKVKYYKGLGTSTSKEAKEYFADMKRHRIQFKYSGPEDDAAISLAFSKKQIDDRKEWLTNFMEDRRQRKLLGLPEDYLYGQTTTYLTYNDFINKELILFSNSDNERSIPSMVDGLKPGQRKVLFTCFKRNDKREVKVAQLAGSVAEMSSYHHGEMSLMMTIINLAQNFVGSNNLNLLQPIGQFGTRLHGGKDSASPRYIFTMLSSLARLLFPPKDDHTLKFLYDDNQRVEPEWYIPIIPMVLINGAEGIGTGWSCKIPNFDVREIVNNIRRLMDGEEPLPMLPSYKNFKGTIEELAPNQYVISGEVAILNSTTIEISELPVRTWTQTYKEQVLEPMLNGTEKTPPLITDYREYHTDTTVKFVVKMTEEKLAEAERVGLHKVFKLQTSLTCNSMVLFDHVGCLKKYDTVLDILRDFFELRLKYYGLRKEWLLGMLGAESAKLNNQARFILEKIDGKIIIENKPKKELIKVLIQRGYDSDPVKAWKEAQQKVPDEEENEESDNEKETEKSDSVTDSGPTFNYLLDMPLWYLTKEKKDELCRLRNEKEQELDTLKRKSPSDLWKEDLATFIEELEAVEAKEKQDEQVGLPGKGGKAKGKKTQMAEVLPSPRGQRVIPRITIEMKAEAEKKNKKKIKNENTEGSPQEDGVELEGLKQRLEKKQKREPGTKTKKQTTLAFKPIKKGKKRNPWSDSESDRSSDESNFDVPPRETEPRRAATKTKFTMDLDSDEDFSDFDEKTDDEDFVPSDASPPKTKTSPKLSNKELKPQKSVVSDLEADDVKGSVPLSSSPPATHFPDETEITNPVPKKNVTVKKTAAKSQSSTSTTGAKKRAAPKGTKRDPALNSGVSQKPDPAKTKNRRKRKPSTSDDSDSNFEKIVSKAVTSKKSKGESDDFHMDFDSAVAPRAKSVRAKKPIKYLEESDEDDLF

Row | SMILES | IC50 [µM]
1 | NC(=S)N1N=C(c2cccnc2)CC1c1cn(-c2ccccc2)nc1-c1ccccc1 (centres undefined) [5-(1,3-Diphenyl-1H-pyrazol-4-yl)-3-(pyridin-3-yl)-4,5-dihydropyrazole-1-carbothioamide (6a)] | 245
2 | NC(=S)N1N=C(c2cccnc2)CC1c1cn(-c2ccccc2)nc1-c1cccc(Br)c1 (centres undefined) [5-(3-(3-Bromophenyl)-1-phenyl-1H-pyrazol-4-yl)-3-(pyridin-3-yl)-4,5-dihydropyrazole-1-carbothioamide (6d)] | 457
3 | NC(=S)N1N=C(c2cccnc2)CC1c1cn(-c2ccccc2)nc1-c1cccc([N+](=O)[O-])c1 (centres undefined) [5-(3-(3-Nitrophenyl)-1-phenyl-1H-pyrazol-4-yl)-3-(pyridin-3-yl)-4,5-dihydropyrazole-1-carbothioamide (6f)] | 445
4 | NC(=S)N1N=C(c2cccnc2)CC1c1cn(-c2ccccc2)nc1-c1ccc(Br)cc1 (centres undefined) [5-(3-(4-Bromophenyl)-1-phenyl-1H-pyrazol-4-yl)-3-(pyridin-3-yl)-4,5-dihydropyrazole-1-carbothioamide (6e)] | 703
5 | NC(=S)N1N=C(c2cccnc2)CC1c1cn(-c2ccccc2)nc1-c1ccc(Cl)cc1 (centres undefined) [5-(3-(4-Chlorophenyl)-1-phenyl-1H-pyrazol-4-yl)-3-(pyridin-3-yl)-4,5-dihydropyrazole-1-carbothioamide (6c)] | 406
6 | NC(=S)N1N=C(c2cccnc2)CC1c1cn(-c2ccccc2)nc1-c1ccc(F)cc1 (centres undefined) [5-(3-(4-Fluorophenyl)-1-phenyl-1H-pyrazol-4-yl)-3-(pyridin-3-yl)-4,5-dihydropyrazole-1-carbothioamide (6b)] | 272
7 | CCOC(=O)C1C(=O)C=C(c2cn(-c3ccccc3)nc2-c2ccc(C)cc2)CC1c1cccnc1 (centres undefined) [Ethyl 2-oxo-4-(1-phenyl-3-p-tolyl-1H-pyrazol-4-yl)-6-(pyridin-3-yl)cyclohex-3-enecarboxylate (5h)] | 395
8 | CCOC(=O)C1C(=O)C=C(c2cn(-c3ccccc3)nc2-c2ccccc2)CC1c1cccnc1 (centres undefined) [Ethyl 4-(1,3-diphenyl-1H-Pyrazol-4-yl)-2-oxo-6-(pyridin-3-yl)cyclohex-3-enecarboxylate (5a)] | 222
9 | CCOC(=O)C1C(=O)C=C(c2cn(-c3ccccc3)nc2-c2cccc(Br)c2)CC1c1cccnc1 (centres undefined) [Ethyl 4-(3-(3-bromophenyl)-1-phenyl-1H-pyrazol-4-yl)-2-oxo-6-(pyridin-3-yl)cyclohex-3-enecarboxylate (5d)] | < 100
10 | CCOC(=O)C1C(=O)C=C(c2cn(-c3ccccc3)nc2-c2cccc([N+](=O)[O-])c2)CC1c1cccnc1 (centres undefined) [Ethyl 4-(3-(3-nitrophenyl)-1-phenyl-1H-pyrazol-4-yl)-2-oxo-6-(pyridin-3-yl)cyclohex-3-enecarboxylate (5f)] | < 100
11 | CCOC(=O)C1C(=O)C=C(c2cn(-c3ccccc3)nc2-c2ccc(Cl)cc2)CC1c1cccnc1 (centres undefined) [Ethyl 4-(3-(4-chlorophenyl)-1-phenyl-1H-pyrazol-4-yl)-2-oxo-6-(pyridin-3-yl)cyclohex-3-enecarboxylate (5c)] | < 100
12 | CCOC(=O)C1C(=O)C=C(c2cn(-c3ccccc3)nc2-c2ccc(F)cc2)CC1c1cccnc1 (centres undefined) [Ethyl 4-(3-(4-fluorophenyl)-1-phenyl-1H-pyrazol-4-yl)-2-oxo-6-(pyridin-3-yl)cyclohex-3-enecarboxylate (5b)] | < 100
13 | CCOC(=O)C1C(=O)C=C(c2cn(-c3ccccc3)nc2-c2ccc(OC)cc2)CC1c1cccnc1 (centres undefined) [Ethyl 4-(3-(4-methoxyphenyl)-1-phenyl-1H-pyrazol-4-yl)-2-oxo-6-(pyridin-3-yl)cyclohex-3-enecarboxylate (5i)] | 428
14 | CCOC(=O)C1C(=O)C=C(c2cn(-c3ccccc3)nc2-c2ccc([N+](=O)[O-])cc2)CC1c1cccnc1 (centres undefined) [Ethyl 4-(3-(4-nitrophenyl)-1-phenyl-1H-pyrazol-4-yl)-2-oxo-6-(pyridin-3-yl)cyclohex-3-enecarboxylate (5g)] | 256
